The compounds below were run on Hep-G2 cells (assay: Inhibition of cell proliferation of Hep-G2 cells (intracellular ATP, CellTiterGlo)). Settings: Homo sapiens, HepG2, 72 hours incubation, ATP content, read-out: IC 50 (μM)/HEP G2.
Type: cell-based
Experimental: The antitumoral activity of products 1 to 10 was determined by measuring the inhibition of cell proliferation of Hep-G2 cells. The cells are subcultured in a cell culture medium at a concentration of 1000 cells per well, and incubated for 4 hours at 37° C. and 5% CO2.
Medium used for the Hep-G2 and HCT-116 cell culture: Dubelcco's modified Eagle's medium/Ham mixture F12 (Gibco); NEAA (10%; nonessential amino acids, Gibco); sodium pyruvate (1%, Gibco); L-glutamine (1%, Gibco); fetal calf serum (5%; PAA).
After 4 hours, the test products dissolved in a DMSO/cell culture medium mixture are added at various concentrations and the resulting mixtures are incubated for 72 hours at 37° C. and 5% CO2. The intracellular ATP content was measured using the CellTiterGlo test reagent (Promega).

Compound	IC50 [µM]
CO[C@@H](C(=O)N[C@H]1Cc2ccccc2[C@H]2CCCCN2C1=O)[C@H](O)[C@@H](O)[C@H](O)/C=C/C(C)(C)C [Ex 9, N-((7S,12bR)-6-oxo-1,2,3,4,6,7,8,12b-octa-hydropyrido[2,1-a][2]benzazepin-7-yl)-(E)-(2R,3R,4S,5R)-3,4,5-trihydroxy-2-methoxy-8,8-dimethylnon-6-enamide]	3.6
CO[C@@H](C(=O)NC1Cc2ccccc2NC1=O)[C@H](O)[C@@H](O)[C@H](O)/C=C/C(C)(C)C (stereo partly drawn) [Ex 7, N-(2-oxo-1,2,3,4-tetrahydroquinolin-3-yl)-(E)-(2R,3R,4S,5R)-3,4,5-trihydroxy-2-methoxy-8,8-dimethylnon-6-enamide]	1.11
CO[C@@H](C(=O)NC1CCCNC1=O)[C@H](O)[C@@H](O)[C@H](O)/C=C/C(C)(C)C (stereo partly drawn) [Ex 6, N-(2-oxopiperidin-3-yl)-(E)-(2R,3R,4S,5R)-3,4,5-trihydroxy-2-methoxy-8,8-dimethylnon-6-enamide]	1.19
CO[C@@H](C(=O)N[C@H]1CCCCN(Cc2ccc(-c3ccccc3)cc2)C1=O)[C@H](O)[C@@H](O)[C@H](O)/C=C/C(C)(C)C [Ex 2, N—[(S)-1-(biphenyl-4-ylmethyl)-2-oxoperhydroazepin-3-yl]-(E)-(2R,3R,4S,5R)-3,4,5-trihydroxy-2-methoxy-8,8-dimethylnon-6-enamide]	1.3
CO[C@@H](C(=O)NC1Cc2ccccc2CN(C)C1=O)[C@H](O)[C@@H](O)[C@H](O)/C=C/C(C)(C)C (stereo partly drawn) [Ex 1, N-(2-Methyl-3-oxo-2,3,4,5-tetrahydro-1H-2-benzazepin-4-yl)-(E)-(2R,3R,4S,5R)-3,4,5-trihydroxy-2-methoxy-8,8-dimethylnon-6-enamide]	0.17
CO[C@@H](C(=O)NC1CN(c2ccccc2)C1=O)[C@H](O)[C@@H](O)[C@H](O)/C=C/C(C)(C)C (stereo partly drawn) [Ex 3, N-(2-Oxo-1-phenylazetidin-3-yl)-(E)-(2R,3R,4S,5R)-3,4,5-trihydroxy-2-methoxy-8,8-dimethylnon-6-enamide]	0.48
CO[C@@H](C(=O)NC1CCCCNC1=O)[C@H](O)[C@@H](O)[C@H](O)/C=C/C(C)C (some centres unmarked) [Bengamide E, reference compound]	7
CO[C@@H](C(=O)N[C@H]1CCCCN(Cc2ccc(-c3ccccc3)cc2)C1=O)[C@H](O)[C@@H](O)[C@H](O)C=NOCc1ccccc1 (racemic) [Ex 10, N—[(S)-1-(biphenyl-4-ylmethyl)-2-oxoperhydro-azepin-3-yl](2R,3R,4S,5S)-6-benzyloxyimino-3,4,5-trihydroxy-2-methoxyhexylamide]	18.3
CO[C@@H](C(=O)NC1CCNC1=O)[C@H](O)[C@@H](O)[C@H](O)/C=C/C(C)(C)C (stereo partly drawn) [Ex 4, N-(2-oxopyrrolidin-3-yl)-(E)-(2R,3R,4S,5R)-3,4,5-trihydroxy-2-methoxy-8,8-dimethylnon-6-enamide]	3.1
COC(=O)C1CC(NC(=O)[C@H](OC)[C@H](O)[C@@H](O)[C@H](O)/C=C/C(C)(C)C)C(=O)N1 (stereo partly drawn) [Ex 5, Methyl 5-oxo-4-((E)-(2R,3R,4S,5R)-3,4,5-tri-hydroxy-2-methoxy-8,8-dimethylnon-6-enoylamino)pyrrolidine-2-carboxylate]	26.7
CO[C@@H](C(=O)NC1CSCCNC1=O)[C@H](O)[C@@H](O)[C@H](O)/C=C/C(C)(C)C (stereo partly drawn) [Ex 8, N-(5-oxoperhydro-1,4-thiazepin-6-yl)-(E)-(2R,3R,4S,5R)-3,4,5-trihydroxy-2-methoxy-8,8-dimethylnon-6-enamide]	0.83
